Values of other authors in PMC6044787 (ACS Omega, 2017).

System: AChE

C[n+]1ccc2c(c1)[nH]c1ccc(Cl)cc12 [Compound 8, nostocarboline]
IC50: 5.3 µM
